What was measured:
Mus musculus [1] = test: Ex-vivo inhibition of po dosed mouse PrCP by FRET analysis in presence of heat inactivated 25% plasma; type: functional, organism-based
[2] = Percentage unbound in 10% human plasma; type: ADME, cell-free
Mus musculus [3] = test: Ex-vivo inhibition of PrCP in heat inactivated 100% plasma of C57 mouse assessed as target engagement calculated as [cmpd]plasma/([cmpd]plasma + Ki (heat inactivated plasma))x100 at 10 mg/kg, po after 20 hrs by FRET analysis; type: functional; set-up: scale not given: the % may be the effect or the level left
[4] = Drug uptake in C57 mouse plasma at 10 mg/kg, po after 20 hrs by LC/MS analysis; type: ADME, organism-based; set-up: dose 10 mg/kg, route oral
Mus musculus [5] = test: Ex-vivo inhibition of PrCP in heat inactivated 100% plasma of po dosed C57 mouse assessed as target engagement after 20 hrs by FRET analysis; type: functional; set-up: scale not given: the % may be the effect or the level left
Mus musculus [6] = test: Ex-vivo inhibition of po dosed mouse PrCP by FRET analysis in presence of heat inactivated 100% plasma; type: functional, organism-based
[7] = Drug uptake in C57 mouse brain at 3 mg/kg, po after 20 hrs by LC/MS analysis; type: ADME, organism-based; set-up: dose 3 mg/kg, route oral; settings: read-out: Drug uptake
[8] = Stability in mouse liver microsomes after 30 mins by LC/MS analysis; type: ADME, Microsome; settings: read-out: Stability
[9] = target: T1, Lysosomal Pro-X carboxypeptidase (Mus musculus, UniProt Q7TMR0); test: Inhibition of mouse PrCP
T1 sequence (Q7TMR0 whole entry): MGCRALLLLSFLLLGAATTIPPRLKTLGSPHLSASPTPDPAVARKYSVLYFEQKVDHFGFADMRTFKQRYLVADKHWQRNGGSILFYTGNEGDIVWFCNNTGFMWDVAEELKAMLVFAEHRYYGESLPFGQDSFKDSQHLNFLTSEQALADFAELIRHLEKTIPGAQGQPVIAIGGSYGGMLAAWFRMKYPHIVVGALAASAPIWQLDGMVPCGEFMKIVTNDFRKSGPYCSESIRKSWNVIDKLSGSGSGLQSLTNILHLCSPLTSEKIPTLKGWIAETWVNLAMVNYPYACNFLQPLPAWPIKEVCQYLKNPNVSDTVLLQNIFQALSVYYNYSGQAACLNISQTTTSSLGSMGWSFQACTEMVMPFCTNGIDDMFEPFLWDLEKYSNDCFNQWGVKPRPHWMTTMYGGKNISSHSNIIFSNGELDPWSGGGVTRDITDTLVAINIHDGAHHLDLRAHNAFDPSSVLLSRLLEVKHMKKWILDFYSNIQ

Mus musculus [10] = test: Ex-vivo inhibition of PrCP in heat inactivated 100% plasma of C57 mouse assessed as target engagement at 10 mg/kg, po after 20 hrs by FRET analysis; type: functional; set-up: scale not given: the % may be the effect or the level left
Mus musculus [11] = test: Ex-vivo inhibition of PrCP in heat inactivated 100% plasma of C57 mouse assessed as target engagement calculated as [cmpd]plasma/([cmpd]plasma + Ki (heat inactivated plasma))x100 at 30 mg/kg, po after 20 hrs by FRET analysis; type: functional; set-up: scale not given: the % may be the effect or the level left
[12] = Drug uptake in C57 mouse plasma at 30 mg/kg, po after 20 hrs by LC/MS analysis; type: ADME, organism-based; set-up: dose 30 mg/kg, route oral
Mus musculus [13] = test: Ex-vivo inhibition of PrCP in heat inactivated 100% plasma of C57 mouse assessed as target engagement at 30 mg/kg, po after 20 hrs by FRET analysis; type: functional; set-up: scale not given: the % may be the effect or the level left
[14] = Ratio of drug uptake in brain to plasma of C57 mouse at 30 mg/kg, po after 20 hrs by LC/MS analysis; type: ADME, organism-based; set-up: dose 30 mg/kg, route oral; settings: read-out: BPR
[15] = Drug uptake in C57 mouse brain at 10 mg/kg, po after 20 hrs by LC/MS analysis; type: ADME, organism-based; set-up: dose 10 mg/kg, route oral; settings: read-out: Drug uptake
[16] = Drug uptake in C57 mouse plasma at 3 mg/kg, po after 20 hrs by LC/MS analysis; type: ADME, organism-based; set-up: dose 3 mg/kg, route oral
[17] = Stability in human liver microsomes after 30 mins by LC/MS analysis; type: ADME, Microsome; settings: read-out: Stability
Mus musculus [18] = test: Toxicity in po dosed C57 mouse; type: organism-based; settings: in vivo
[19] = Apparent permeability across pig LLC-PK1 cells at 1 uM; type: ADME, cell-based, Sus scrofa
Mus musculus [20] = test: Ex-vivo inhibition of PrCP in heat inactivated 100% plasma of C57 mouse assessed as target engagement at 3 mg/kg, po after 20 hrs by FRET analysis; type: functional; set-up: scale not given: the % may be the effect or the level left
[21] = Ratio of drug uptake in brain to plasma of C57 mouse at 10 mg/kg, po after 20 hrs by LC/MS analysis; type: ADME, organism-based; set-up: dose 10 mg/kg, route oral; settings: read-out: BPR
[22] = Ratio of drug uptake in brain to plasma of C57 mouse at 3 mg/kg, po after 20 hrs by LC/MS analysis; type: ADME, organism-based; set-up: dose 3 mg/kg, route oral; settings: read-out: BPR
Mus musculus [23] = test: Ex-vivo inhibition of po dosed mouse PrCP by FRET analysis in absence of plasma; type: functional, organism-based
[24] = Percentage unbound in 10% mouse plasma; type: ADME, cell-free
Mus musculus [25] = test: Ex-vivo inhibition of PrCP in heat inactivated 100% plasma of C57 mouse assessed as target engagement calculated as [cmpd]plasma/([cmpd]plasma + Ki (heat inactivated plasma))x100 at 3 mg/kg, po after 20 hrs by FRET analysis; type: functional; set-up: scale not given: the % may be the effect or the level left
[26] = Drug uptake in C57 mouse brain at 30 mg/kg, po after 20 hrs by LC/MS analysis; type: ADME, organism-based; set-up: dose 30 mg/kg, route oral; settings: read-out: Drug uptake
[27] = Clearance in mouse at 1 mg/kg, iv and 30 mg/kg, po; type: ADME, organism-based; settings: in vivo
[28] = Oral bioavailability in mouse at 30 mg/kg; type: ADME, organism-based; settings: in vivo
Mus musculus [29] = test: Dose normalized AUC in mouse at 1 mg/kg, iv and 30 mg/kg, po; type: ADME, organism-based; settings: in vivo
[30] = Volume of distribution in mouse at 1 mg/kg, iv and 30 mg/kg, po; type: ADME, organism-based; settings: in vivo

Row | Structure (SMILES) | Ki (Mus musculus [1]) | fraction unbound [2] | Ki (Mus musculus [6]) | remaining at 0.5 h [8] | IC50 [9] | remaining at 0.5 h [17] | Ki (Mus musculus [23]) | fraction unbound [24] | also measured
1 | C[C@@]1(N)C[C@H](C(=O)N2CCC(c3ccnn3-c3ccc(F)c(Cl)c3)CC2)[C@@H](c2ccc(F)cc2F)C1 | 1.5 nM | 0.065 | 3.9 nM | 73% | 1 nM | 20% | 0.7 nM | 0.035 | Activity (Mus musculus [3]): 100%; concentration at 20 h [4]: 185 nM; Activity (Mus musculus [5]): 38%; concentration at 20 h [7]: 6 nM; Activity (Mus musculus [10]): 72%; Activity (Mus musculus [11]): 100%; concentration at 20 h [12]: 2130 nM; Activity (Mus musculus [13]): >=100%; Kp at 20 h [14]: 0.07; concentration at 20 h [15]: 51 nM; concentration at 20 h [16]: 23 nM; Activity (Mus musculus [18]): Non-toxic; Papp at 1 µM [19]: 21.7 ×10⁻⁶ cm/s; Activity (Mus musculus [20]): 31%; Kp at 20 h [21]: 0.28; Kp at 20 h [22]: 0.18; Activity (Mus musculus [25]): 84.2%; concentration at 20 h [26]: 142 nM
2 | Cc1nc(C2CCN(C(=O)[C@@H]3C[C@@](C)(N)C[C@H]3c3ccc(F)cc3F)CC2)n(-c2ccc(Cl)c(C)c2)n1 | 26.7 nM | 0.076 | 73.9 nM | 72% | 85.1 nM | 78% | 11 nM | 0.102 | 
3 | Cc1cc(C2CCN(C(=O)[C@@H]3CN(C(C)(C)C)C[C@H]3c3ccc(F)cc3F)CC2)n(-c2cc(Cl)ccc2Cl)n1 |  |  |  |  |  |  |  |  | clearance [27]: 48 mL/min/kg; bioavailability [28]: 31%; Activity (Mus musculus [11]): 99.8%; Activity (Mus musculus [13]): 97.7%; Kp at 20 h [14]: 1.35; AUC/dose (Mus musculus [29]): 0.19 µM·kg·h/mg; Vd [30]: 13 L/kg
4 | CN(C)[C@]1(C)C[C@H](C(=O)N2CCC(c3ccnn3-c3ccc(F)c(Cl)c3)CC2)[C@@H](c2ccc(F)cc2F)C1 |  | 0.144 |  | 23% |  | 1% |  | 0.091 | Activity (Mus musculus [3]): 99.6%; concentration at 20 h [4]: 305 nM; Activity (Mus musculus [5]): 38%; Activity (Mus musculus [10]): >=100%; concentration at 20 h [15]: 26 nM; Activity (Mus musculus [18]): Non-toxic; Papp at 1 µM [19]: 23.1 ×10⁻⁶ cm/s; Kp at 20 h [21]: 0.09
5 | Cc1nc(C2CCN(C(=O)[C@@H]3C[C@H](N(C)C)C[C@H]3c3ccc(F)cc3F)CC2)n(-c2ccc(Cl)c(C)c2)n1 |  |  |  |  | 65 nM |  |  |  | 
6 | Cc1nc(C2CCN(C(=O)[C@@H]3C[C@@H](N(C)C)C[C@H]3c3ccc(F)cc3F)CC2)n(-c2ccc(Cl)c(C)c2)n1 |  | 0.22 |  |  | 41 nM |  |  | 0.32 | 
7 | Cc1nc(C2CCN(C(=O)[C@@H]3CN(C(C)(C)C)C[C@H]3c3ccc(F)cc3F)CC2)n(-c2ccc(Cl)c(C)c2)n1 |  |  |  |  |  |  |  |  | clearance [27]: 128 mL/min/kg; bioavailability [28]: 20%; AUC/dose (Mus musculus [29]): 0.05 µM·kg·h/mg; Vd [30]: 17 L/kg

The next lines start with results.

Row | Ki (Mus musculus [1]) | fraction unbound [2] | Ki (Mus musculus [6]) | remaining at 0.5 h [8] | IC50 [9] | remaining at 0.5 h [17] | Ki (Mus musculus [23]) | fraction unbound [24] | Structure (SMILES) | also measured
8 | 0.9 nM | 0.087 | 2.1 nM | 33.6% | 0.4 nM | 12% | 0.5 nM | 0.013 | Cc1cc(C2CCN(C(=O)[C@@H]3C[C@@](C)(N(C)C)C[C@H]3c3ccc(F)cc3F)CC2)n(-c2cc(Cl)ccc2Cl)n1 | 
9 | 24.7 nM | 0.069 | 66.1 nM |  |  |  | 10.9 nM | 0.043 | Cc1cc(C2CCN(C(=O)[C@@H]3C[C@](C)(N)C[C@H]3c3ccc(F)cc3F)CC2)n(-c2ccc(F)c(Cl)c2)n1 | 
10 | 2.1 nM | 0.071 | 5.2 nM | 78% | 0.9 nM | 39% | 1 nM | 0.02 | Cc1cc(C2CCN(C(=O)[C@@H]3C[C@@](C)(N)C[C@H]3c3ccc(F)cc3F)CC2)n(-c2cc(Cl)ccc2Cl)n1 | 
